In general, AC50 refers to the concentration at which the activity in the assay is half-maximal.

The nature of assay [1]: HEK293T viability reduction via ATP content – cell-based, CellTiter-Glo luminescence, dry powder, cytotoxicity control, dose response (AID 743481). The settings on record: HEK293T viability, ATP luminescence, 72 h; at 26 µM (top of the series). A general note: In ATP-based viability assays light output follows the ATP content of the culture.
Assay [2] concerns HEK293T viability, ATP luminescence, 72 h. The assay is described as above.

The source made the active and inactive calls.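 How the source made its calls: active means compounds lowering cell ATP signal whose fitted AC50 is at most twice their highest tested dose; inconclusive means flat curve with moderate signal loss, or unreliable fit; inactive means the rest.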 Where only a bound is given, the exact number is not on record here.

`C[C@H]1CCCCO[C@@H](CN(C)C(=O)Nc2ccc3c(c2)OCO3)[C@@H](C)CN([C@@H](C)CO)C(=O)c2cc(NC(=O)NC3CCCCC3)ccc2O1`: in assay [1], the activity change, negative = cytotoxicity is -7.34% (inactive).

`COc1ccc(NC(=O)N(C)C[C@@H]2OCCCC[C@H](C)Oc3ccc(NC(=O)C4CCCCC4)cc3C(=O)N([C@H](C)CO)C[C@@H]2C)cc1`: the activity change, negative = cytotoxicity in assay [1] is -7.25% (inactive).

With `C[C@H](CO)N1C[C@H](C)[C@H](CN(C)C(=O)Nc2ccc(F)cc2)OCCCC[C@H](C)Oc2ccc(NC(=O)Nc3ccccc3)cc2C1=O`, the activity change, negative = cytotoxicity in assay [1] is -10.5% (inactive).

In the case of `C[C@H](CO)N1C[C@H](C)[C@H](CN(C)C(=O)Nc2ccccc2F)OCCCC[C@H](C)Oc2ccc(NC(=O)C3CCCCC3)cc2C1=O`, the activity change, negative = cytotoxicity in assay [1] is -11.7% (inactive).

As for `C[C@@H]1CCCCO[C@H](CN(C)C(=O)Nc2cccc3ccccc23)[C@@H](C)CN([C@@H](C)CO)C(=O)c2cc(NC(=O)C3CCCCC3)ccc2O1`, in assay [1], the activity change, negative = cytotoxicity was 6.63% (inactive).

As to `C[C@H](CO)N1C[C@H](C)[C@H](CN(C)C(=O)Nc2ccc3c(c2)OCO3)OCCCC[C@H](C)Oc2ccc(NC(=O)C3CCCCC3)cc2C1=O`, the activity change, negative = cytotoxicity in assay [1] was 2.78% (inactive).

Turning to `C[C@@H]1CCCCO[C@@H](CN(C)C(=O)Nc2cccc3ccccc23)[C@@H](C)CN([C@@H](C)CO)C(=O)c2cc(NC(=O)C3CCCCC3)ccc2O1`, in assay [1], the activity change, negative = cytotoxicity was -16.3% (inactive).

`C[C@@H]1CCCCO[C@@H](CN(C)C(=O)Nc2cccc3ccccc23)[C@H](C)CN([C@H](C)CO)C(=O)c2cc(NC(=O)C3CCCCC3)ccc2O1`: the activity change, negative = cytotoxicity in assay [1] was -11.7% (inactive).

For `C[C@H](CO)N1C[C@H](C)[C@H](CN(C)C(=O)Nc2cccc3ccccc23)OCCCC[C@H](C)Oc2ccc(NC(=O)C3CCCCC3)cc2C1=O`, the activity change, negative = cytotoxicity in assay [1] was -4.95% (inactive).

Take `C[C@H](CO)N1C[C@H](C)[C@H](CN(C)C(=O)Nc2ccccc2)OCCCC[C@H](C)Oc2ccc(NC(=O)CCC(F)(F)F)cc2C1=O`: the activity change, negative = cytotoxicity in assay [1] is -6.87% (inactive).

In the case of `C[C@H](CO)N1C[C@H](C)[C@H](CN(C)C(=O)Nc2ccccc2)OCCCC[C@H](C)Oc2ccc(NC(=O)Nc3ccc4c(c3)OCO4)cc2C1=O`, in assay [1], the activity change, negative = cytotoxicity was -5.94% (inactive).

As for `C[C@@H]1CCCCO[C@H](CN(C)C(=O)Nc2cccc3ccccc23)[C@H](C)CN([C@H](C)CO)C(=O)c2cc(NC(=O)C3CCCCC3)ccc2O1`, the activity change, negative = cytotoxicity in assay [1] is 3.66% (inactive).

Turning to `C[C@H](CO)N1C[C@H](C)[C@@H](CN(C)C(=O)Nc2cccc3ccccc23)OCCCC[C@H](C)Oc2ccc(NC(=O)C3CCCCC3)cc2C1=O`, the activity change, negative = cytotoxicity in assay [1] was -7.19% (inactive).

On to `C[C@H](CO)N1C[C@H](C)[C@H](CN(C)C(=O)Nc2ccccc2)OCCCC[C@H](C)Oc2ccc(NC(=O)Nc3ccccc3)cc2C1=O`, for which, in assay [1], the activity change, negative = cytotoxicity was 0.603% (inactive).

Take `C[C@H](CO)N1C[C@H](C)[C@H](CN(C)C(=O)Nc2cccc3ccccc23)OCCCC[C@H](C)Oc2ccc(NC(=O)c3ccccc3)cc2C1=O`: in assay [1], the activity change, negative = cytotoxicity is -8.78% (inactive).

As for `C[C@@H]1CCCCO[C@H](CN(C)C(=O)Nc2cccc3ccccc23)[C@@H](C)CN([C@H](C)CO)C(=O)c2cc(NC(=O)C3CCCCC3)ccc2O1`, the activity change, negative = cytotoxicity in assay [1] is -3.68% (inactive).

Regarding `C[C@H](CO)N1C[C@H](C)[C@H](CN(C)C(=O)Nc2ccc(F)cc2)OCCCC[C@H](C)Oc2ccc(NC(=O)C3CC3)cc2C1=O`, the activity change, negative = cytotoxicity in assay [1] was -1.35% (inactive).

In the case of `C[C@H](CO)N1C[C@H](C)[C@H](CN(C)C(=O)Nc2ccc(C(F)(F)F)cc2)OCCCC[C@H](C)Oc2ccc(NC(=O)CCC(F)(F)F)cc2C1=O`, in assay [2], the AC50 is > 52 µM (inactive).

For `C[C@H](CO)N1C[C@H](C)[C@H](CN(C)C(=O)Nc2ccc(F)cc2)OCCCC[C@H](C)Oc2ccc(NC(=O)Nc3ccc(F)cc3)cc2C1=O`, in assay [1], the activity change, negative = cytotoxicity is -12.4% (inactive).

For the compound `C[C@H](CO)N1C[C@H](C)[C@H](CN(C)C(=O)Nc2ccc3c(c2)OCO3)OCCCC[C@H](C)Oc2ccc(NC(=O)NC3CCCCC3)cc2C1=O`, in assay [1], the activity change, negative = cytotoxicity is -11.1% (inactive).

As for `C[C@@H]1CCCCO[C@H](CN(C)C(=O)Nc2cccc3ccccc23)[C@H](C)CN([C@@H](C)CO)C(=O)c2cc(NC(=O)C3CCCCC3)ccc2O1`, in assay [1], the activity change, negative = cytotoxicity is -10.3% (inactive).

On to `C[C@H]1CCCCO[C@@H](CN(C)C(=O)Nc2ccccc2)[C@@H](C)CN([C@@H](C)CO)C(=O)c2cc(NC(=O)NC3CCCCC3)ccc2O1`, for which the activity change, negative = cytotoxicity in assay [1] is 3.42% (inactive).

For `C[C@@H]1CN([C@@H](C)CO)C(=O)c2cc(NC(=O)C3CCCCC3)ccc2O[C@@H](C)CCCCO[C@H]1CN(C)C(=O)Nc1cccc2ccccc12`, the half-maximal activity concentration (AC50) in assay [2] was 7.74 µM.

As to `C[C@H](CO)N1C[C@H](C)[C@H](CN(C)C(=O)Nc2ccc(F)cc2)OCCCC[C@H](C)Oc2ccc(NC(=O)C3CCCC3)cc2C1=O`, the activity change, negative = cytotoxicity in assay [1] was 9.39% (inactive).

In the case of `C[C@@H]1CCCCO[C@@H](CN(C)C(=O)Nc2cccc3ccccc23)[C@@H](C)CN([C@H](C)CO)C(=O)c2cc(NC(=O)C3CCCCC3)ccc2O1`, the activity change, negative = cytotoxicity in assay [1] was -15.4% (inactive).

For `CC(C)(C)c1ccc(-c2nc(-c3ccncc3)no2)cc1`, the activity change, negative = cytotoxicity in assay [1] is -16.3% (inactive).

`C[C@H](CO)N1C[C@H](C)[C@H](CN(C)C(=O)Nc2ccc(Cl)cc2)OCCCC[C@H](C)Oc2ccc(NC(=O)C3CCCCC3)cc2C1=O`: in assay [1], the activity change, negative = cytotoxicity was -12.5% (inactive).

Take `CC(=O)Nc1ccc2c(c1)C(=O)N([C@H](C)CO)C[C@H](C)[C@H](CN(C)C(=O)Nc1ccc(F)cc1)OCCCC[C@H](C)O2`: in assay [1], the activity change, negative = cytotoxicity was -16.5% (inactive).

Turning to `C[C@H](CO)N1C[C@H](C)[C@H](CN(C)C(=O)Nc2ccc(C(F)(F)F)cc2)OCCCC[C@H](C)Oc2ccc(NC(=O)NC3CCCCC3)cc2C1=O`, the activity change, negative = cytotoxicity in assay [1] was 5.48% (inactive).

In the case of `C[C@H](CO)N1C[C@H](C)[C@H](CN(C)C(=O)Nc2ccc(F)cc2)OCCCC[C@H](C)Oc2ccc(NC(=O)C3CCOCC3)cc2C1=O`, the activity change, negative = cytotoxicity in assay [1] is -1.32% (inactive).

As for `C[C@H](CO)N1C[C@H](C)[C@H](CN(C)C(=O)Nc2ccc(F)cc2)OCCCC[C@H](C)Oc2ccc(NC(=O)C3CCC3)cc2C1=O`, the activity change, negative = cytotoxicity in assay [1] is -3.85% (inactive).

With `C[C@H](CO)N1C[C@H](C)[C@H](CN(C)C(=O)Nc2cccc3ccccc23)OCCCC[C@H](C)Oc2ccc(NC(=O)CCC(F)(F)F)cc2C1=O`, the activity change, negative = cytotoxicity in assay [1] was 24.6% (inactive).

For `C[C@H]1CCCCO[C@@H](CN(C)C(=O)Nc2ccc(F)cc2)[C@@H](C)CN([C@@H](C)CO)C(=O)c2cc(NC(=O)C3CCCCC3)ccc2O1`, the activity change, negative = cytotoxicity in assay [1] is -15.6% (inactive).

For the compound `C[C@H](CO)N1C[C@H](C)[C@H](CN(C)C(=O)Nc2cccc3ccccc23)OCCCC[C@H](C)Oc2ccc(NC(=O)NC3CCCCC3)cc2C1=O`, the activity change, negative = cytotoxicity in assay [1] was -18.8% (inactive).

For the compound `C[C@H](CO)N1C[C@H](C)[C@H](CN(C)C(=O)Nc2cccc(F)c2)OCCCC[C@H](C)Oc2ccc(NC(=O)C3CCCCC3)cc2C1=O`, in assay [1], the activity change, negative = cytotoxicity is 9.35% (inactive).

Take `C[C@H](CO)N1C[C@H](C)[C@H](CN(C)C(=O)Nc2ccc(F)cc2)OCCCC[C@H](C)Oc2ccc(NC(=O)C3CCCCC3)cc2C1=O`: the activity change, negative = cytotoxicity in assay [1] was -7.09% (inactive).

As for `Cc1ccc(NC(=O)N(C)C[C@@H]2OCCCC[C@H](C)Oc3ccc(NC(=O)C4CCCCC4)cc3C(=O)N([C@H](C)CO)C[C@@H]2C)cc1`, in assay [1], the activity change, negative = cytotoxicity was 9.91% (inactive).

For the compound `COc1ccc(S(=O)(=O)N(C)C[C@@H]2OCCCC[C@H](C)Oc3ccc(NS(=O)(=O)c4ccc(Cl)cc4)cc3C(=O)N([C@@H](C)CO)C[C@@H]2C)cc1`, the half-maximal activity concentration (AC50) in assay [2] is 16.4 µM.

As to `C[C@H]1CCCCO[C@@H](CN(C)C(=O)Nc2cccc3ccccc23)[C@@H](C)CN([C@@H](C)CO)C(=O)c2cc(NC(=O)C3CCCCC3)ccc2O1`, in assay [1], the activity change, negative = cytotoxicity was -14.3% (inactive).

Consider `C[C@H](CO)N1C[C@H](C)[C@H](CN(C)C(=O)Nc2ccc(F)cc2)OCCCC[C@H](C)Oc2ccc(NC(=O)NC3CCCCC3)cc2C1=O`, for which, in assay [1], the activity change, negative = cytotoxicity is -9.87% (inactive).

For `C[C@H](CO)N1C[C@H](C)[C@H](CN(C)C(=O)Nc2ccccc2)OCCCC[C@H](C)Oc2ccc(NC(=O)NC3CCCCC3)cc2C1=O`, the activity change, negative = cytotoxicity in assay [1] is -8.51% (inactive).

On to `C[C@H](CO)N1C[C@H](C)[C@H](CN(C)C(=O)Nc2ccccc2)OCCCC[C@H](C)Oc2ccc(NC(=O)C3CCCCC3)cc2C1=O`, for which, in assay [1], the activity change, negative = cytotoxicity was -9.15% (inactive).

For the compound `C[C@H](CO)N1C[C@H](C)[C@H](CN(C)C(=O)Nc2ccc3ccccc3c2)OCCCC[C@H](C)Oc2ccc(NC(=O)C3CCCCC3)cc2C1=O`, the activity change, negative = cytotoxicity in assay [1] was 7.21% (inactive).

With `C[C@H](CO)N1C[C@H](C)[C@H](CN(C)C(=O)Nc2ccc(F)cc2)OCCCC[C@H](C)Oc2ccc(NC(=O)C3CCCCCC3)cc2C1=O`, in assay [1], the activity change, negative = cytotoxicity was -6.61% (inactive).

Take `C[C@@H]1CN([C@@H](C)CO)C(=O)c2cc(NC(=O)C3CCCCC3)ccc2O[C@@H](C)CCCCO[C@@H]1CN(C)C(=O)Nc1cccc2ccccc12`: the activity change, negative = cytotoxicity in assay [1] was -17% (inactive).

`COc1ccc(NC(=O)N(C)C[C@@H]2OCCCC[C@H](C)Oc3ccc(NC(=O)NC4CCCCC4)cc3C(=O)N([C@H](C)CO)C[C@@H]2C)cc1`: the activity change, negative = cytotoxicity in assay [1] was -10.6% (inactive).

Turning to `C[C@@H]1CCCCO[C@@H](CN(C)C(=O)Nc2cccc3ccccc23)[C@H](C)CN([C@@H](C)CO)C(=O)c2cc(NC(=O)C3CCCCC3)ccc2O1`, in assay [1], the activity change, negative = cytotoxicity was -12.5% (inactive).

As to `C[C@H]1CCCCO[C@@H](CN(C)S(=O)(=O)c2ccc(Cl)cc2)[C@@H](C)CN([C@@H](C)CO)C(=O)c2cc(NC(=O)NC3CCCCC3)ccc2O1`, the half-maximal activity concentration (AC50) in assay [2] is 15.8 µM.
